In brackets after ≈: the same amount, converted by molar mass. Activity calls are given as the source filed them. No cut-off for these calls is given here.
What was measured:
P388 [1] = test: In vivo cytotoxicity against mouse P388 cells; format: functional, organism-based
P388 [2] = test: Cytotoxicity against mouse P388 cells; format: functional, cell-based
[3] = Cytotoxicity against mouse B16-F1 cells; format: functional, cell-based

| SMILES | Activity (P388 [1]) | IC50 (P388 [2]) [µg/mL] | IC50 [3] [µg/mL] |
| --- | --- | --- | --- |
| CC/C=C/C(CC)CC(C)CC1(CC)C=C(CC)C(C(=O)O)OO1 (stereo not drawn) | inactive | 0.055 (≈ 0.162 µM) |  |
| COC(=O)C[C@@H]1OO[C@@](C)(/C(C)=C/C(C)=C/Cc2ccccc2)C[C@H]1C | inactive |  | 12 (≈ 33.5 µM) |
| CC/C=C/C(CC)CC(C)Cc1cc(CC)c(CC(=O)O)o1 (stereo not drawn) [GLANVILLIC ACID A] |  | > 20 |  |
| CCCC(CC)CC(C)Cc1cc(CC)c(CC(=O)O)o1 (stereo not drawn) [GLNVILLIC ACID B] |  | > 20 |  |
| COC(=O)C[C@@H]1OO[C@@](C)(/C(C)=C/C=C/Cc2ccccc2)C[C@H]1C [METHYL CAPUCINOATE A] | inactive |  | 12 (≈ 34.8 µM) |

From ChEMBL document CHEMBL1150562, “Glánvillic acids A and B and methyl capucinoate A, new metabolites isolated from the Caribbean sponges Plakortis halichondrioides and Plakinastrella onkodes” (J Nat Prod, 2001)
